Reference: PubChem BioAssay (NCI)
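Compound exposure: 48 hours, 5 concentrations, 96-well plates. TGI is the concentration that stops growth completely.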

How the values were obtained:
Experiment in all cases: DTP human tumour cell line panel, 48 h
OVCAR-4 ovarian = test system: OVCAR-4 ovarian
LXFL 529 NSCLC = test system: LXFL 529 NSCLC
SK-OV-3 ovarian = test system: SK-OV-3 ovarian
COLO 205 colon = test system: COLO 205 colon
HOP-62 NSCLC = test system: HOP-62 NSCLC
SNB-19 CNS = test system: SNB-19 CNS
KM12 colon = test system: KM12 colon
NCI-H460 lung = test system: NCI-H460 lung
SK-MEL-28 melanoma = test system: SK-MEL-28 melanoma
MALME-3M melanoma = test system: MALME-3M melanoma
NCI-H23 lung = test system: NCI-H23 lung
UACC-257 melanoma = test system: UACC-257 melanoma
HCT-116 colon = test system: HCT-116 colon
HCC-2998 colon = test system: HCC-2998 colon
SK-MEL-2 melanoma = test system: SK-MEL-2 melanoma
OVCAR-8 ovarian = test system: OVCAR-8 ovarian
M14 melanoma = test system: M14 melanoma
HL-60(TB) leukemia = test system: HL-60(TB) leukemia
OVCAR-5 ovarian = test system: OVCAR-5 ovarian

| Structure (SMILES) | TGI (OVCAR-4 ovarian) [µM] | TGI (LXFL 529 NSCLC) [µM] | TGI (SK-OV-3 ovarian) [µM] | TGI (COLO 205 colon) [µM] | TGI (HOP-62 NSCLC) [µM] | TGI (SNB-19 CNS) [µM] | TGI (KM12 colon) [µM] | TGI (NCI-H460 lung) [µM] | TGI (SK-MEL-28 melanoma) [µM] | TGI (MALME-3M melanoma) [µM] | TGI (NCI-H23 lung) [µM] | TGI (UACC-257 melanoma) [µM] | TGI (HCT-116 colon) [µM] | TGI (HCC-2998 colon) [µM] | TGI (SK-MEL-2 melanoma) [µM] | TGI (OVCAR-8 ovarian) [µM] | TGI (M14 melanoma) [µM] | TGI (HL-60(TB) leukemia) [µM] | TGI (OVCAR-5 ovarian) [µM] |
| --- | --- | --- | --- | --- | --- | --- | --- | --- | --- | --- | --- | --- | --- | --- | --- | --- | --- | --- | --- |
| O=S(=O)(c1ccccc1)N1N=C2c3ccccc3CCC[C@H]2C1c1ccccc1 (some centres undefined) | > 100 | > 100 | > 100 | > 100 | > 100 | > 100 | > 100 | > 100 | > 100 | > 100 | > 100 | > 100 | > 100 | > 100 | > 100 | > 100 | > 100 | > 100 | > 100 |
| CCOC(=O)/C(=C/c1ccc(N(C)C)cc1)N(CC)CC | > 100 | > 100 | > 100 | > 100 | > 100 | > 100 | > 100 | – | > 100 | > 100 | > 100 | > 100 | > 100 | > 100 | > 100 | > 100 | > 100 | 81 | > 100 |
| C[N+](C)(C)CC1CCC/C1=N\OC(=O)c1ccccc1 (centres undefined) | > 100 | > 100 | > 100 | > 100 | > 100 | > 100 | > 100 | – | > 100 | > 100 | > 100 | > 100 | > 100 | – | > 100 | > 100 | > 100 | > 100 | – |
| Cn1cnnc1Sc1c([N+](=O)[O-])ncn1C | > 100 | 63 | > 100 | > 100 | > 100 | > 100 | > 100 | > 100 | > 100 | 46.1 | > 100 | > 100 | > 100 | > 100 | > 100 | > 100 | > 100 | – | > 100 |
| C[C@]12CCC(=O)C=C1CC[C@@H]1C2CC[C@]2(C)Nc3[nH]ncc3CC12 (some centres undefined) | > 100 | > 100 | > 100 | – | > 100 | – | > 100 | > 100 | > 100 | > 100 | > 100 | > 100 | > 100 | > 100 | > 100 | > 100 | > 100 | > 100 | > 100 |
| C=C(C)C1CCC2(C)CC1c1c(c(C)cc3c1[nH]c1ccccc13)O2 (centres undefined) | > 25 | > 25 | > 25 | > 25 | > 25 | > 25 | > 25 | > 25 | > 25 | > 25 | – | – | > 25 | > 25 | > 25 | > 25 | > 25 | > 25 | > 25 |
| O=[N+]([O-])c1ccc(-c2cnc3ccccn23)cc1 | > 100 | > 100 | > 100 | > 100 | > 100 | > 100 | > 100 | > 100 | > 100 | > 100 | > 100 | > 100 | > 100 | – | > 100 | > 100 | > 100 | > 100 | > 100 |
| COC(=O)C(C(=O)Cc1ccccc1[N+](=O)[O-])C(=O)OC | > 100 | > 100 | > 100 | > 100 | > 100 | > 100 | > 100 | > 100 | > 100 | > 100 | > 100 | > 100 | > 100 | > 100 | > 100 | > 100 | > 100 | > 100 | – |
| CN(C)CCNC(=O)c1cccc2c(Nc3ccc(S(=O)(=O)N=C(N)N)cc3)c3ccccc3nc12 | 30 | > 100 | – | 32.2 | 39.2 | 17.9 | > 100 | 18.7 | 71.2 | – | > 100 | – | > 100 | – | 38.5 | 69.1 | > 100 | 2.59 | 90.4 |
| CC1(C)CC(=O)CC(=Nc2ccc([N+](=O)[O-])cc2)C1 | – | > 100 | > 100 | > 100 | > 100 | – | > 100 | > 100 | > 100 | > 100 | > 100 | > 100 | 40.9 | > 100 | > 100 | > 100 | > 100 | > 100 | > 100 |
| CC(Oc1ccc(OCC2CCCCC2)cc1)C(=O)OCC(=O)c1ccc(-c2ccccc2)cc1 (centres undefined) | > 100 | > 100 | > 100 | – | – | > 100 | > 100 | > 100 | > 100 | > 100 | > 100 | > 100 | > 100 | > 100 | > 100 | > 100 | > 100 | > 100 | – |
